The values that follow come from patent US10160755B2 (Plexxikon Inc., priority 2015, dated 2018).

Usually IC50 stands for the concentration that inhibits the measured activity by half. The low end stands for higher potency, the high end for lower potency.

The target of one test is T1, FLT3-ITD (Homo sapiens, UniProt P36888).
T1 construct: FLT3-ITD; Invitrogen #PV6190
T1 sequence (P36888 1-993): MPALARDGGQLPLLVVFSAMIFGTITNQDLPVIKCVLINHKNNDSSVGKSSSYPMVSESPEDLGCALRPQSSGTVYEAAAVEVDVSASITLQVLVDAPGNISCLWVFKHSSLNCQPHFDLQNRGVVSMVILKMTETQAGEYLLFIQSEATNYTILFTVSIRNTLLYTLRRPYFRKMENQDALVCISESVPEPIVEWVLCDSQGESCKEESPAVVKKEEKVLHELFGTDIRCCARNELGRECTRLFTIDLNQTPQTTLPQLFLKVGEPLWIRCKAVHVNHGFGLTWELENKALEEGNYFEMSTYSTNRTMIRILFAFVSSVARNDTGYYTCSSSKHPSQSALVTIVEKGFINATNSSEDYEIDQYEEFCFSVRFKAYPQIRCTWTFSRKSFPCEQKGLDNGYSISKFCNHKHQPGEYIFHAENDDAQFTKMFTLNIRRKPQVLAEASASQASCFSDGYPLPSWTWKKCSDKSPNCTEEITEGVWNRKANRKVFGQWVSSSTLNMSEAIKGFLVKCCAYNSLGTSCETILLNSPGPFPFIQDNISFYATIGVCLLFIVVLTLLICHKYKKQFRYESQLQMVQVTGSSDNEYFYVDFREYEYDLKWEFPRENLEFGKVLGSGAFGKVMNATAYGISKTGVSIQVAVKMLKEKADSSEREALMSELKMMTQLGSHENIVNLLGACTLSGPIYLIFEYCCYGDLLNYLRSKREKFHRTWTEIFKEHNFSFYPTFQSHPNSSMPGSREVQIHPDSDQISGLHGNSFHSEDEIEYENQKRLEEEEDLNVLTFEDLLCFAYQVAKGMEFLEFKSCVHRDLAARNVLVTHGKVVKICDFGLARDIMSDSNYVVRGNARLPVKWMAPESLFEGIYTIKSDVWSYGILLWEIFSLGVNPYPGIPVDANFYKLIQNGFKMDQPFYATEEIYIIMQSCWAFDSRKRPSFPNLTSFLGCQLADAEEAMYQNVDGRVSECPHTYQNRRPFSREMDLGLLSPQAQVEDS
Kind of test: FLT3-ITD biochemical kinase assay (AlphaScreen). The gist of the method:
(§1)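 AlphaScreen read-out of tyrosine phosphorylation of a 30 nM biotinylated poly(Glu4-Tyr) substrate, captured on streptavidin donor and PY20 acceptor beads at room temperature. ATP for IC50 work was 100 μM with FLT3-ITD and 10 μM with FLT3-D835Y; reduced 580 nm proximity signal reflects kinase inhibition.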
(In Alpha technology, singlet oxygen from a donor bead excites a nearby acceptor bead.)

The target of another test is T2, FLT3-D835Y (Homo sapiens, UniProt P36888, D835Y).
T2 construct: purchased Invitrogen PV3967
T2 sequence (P36888 27-993 D835Y): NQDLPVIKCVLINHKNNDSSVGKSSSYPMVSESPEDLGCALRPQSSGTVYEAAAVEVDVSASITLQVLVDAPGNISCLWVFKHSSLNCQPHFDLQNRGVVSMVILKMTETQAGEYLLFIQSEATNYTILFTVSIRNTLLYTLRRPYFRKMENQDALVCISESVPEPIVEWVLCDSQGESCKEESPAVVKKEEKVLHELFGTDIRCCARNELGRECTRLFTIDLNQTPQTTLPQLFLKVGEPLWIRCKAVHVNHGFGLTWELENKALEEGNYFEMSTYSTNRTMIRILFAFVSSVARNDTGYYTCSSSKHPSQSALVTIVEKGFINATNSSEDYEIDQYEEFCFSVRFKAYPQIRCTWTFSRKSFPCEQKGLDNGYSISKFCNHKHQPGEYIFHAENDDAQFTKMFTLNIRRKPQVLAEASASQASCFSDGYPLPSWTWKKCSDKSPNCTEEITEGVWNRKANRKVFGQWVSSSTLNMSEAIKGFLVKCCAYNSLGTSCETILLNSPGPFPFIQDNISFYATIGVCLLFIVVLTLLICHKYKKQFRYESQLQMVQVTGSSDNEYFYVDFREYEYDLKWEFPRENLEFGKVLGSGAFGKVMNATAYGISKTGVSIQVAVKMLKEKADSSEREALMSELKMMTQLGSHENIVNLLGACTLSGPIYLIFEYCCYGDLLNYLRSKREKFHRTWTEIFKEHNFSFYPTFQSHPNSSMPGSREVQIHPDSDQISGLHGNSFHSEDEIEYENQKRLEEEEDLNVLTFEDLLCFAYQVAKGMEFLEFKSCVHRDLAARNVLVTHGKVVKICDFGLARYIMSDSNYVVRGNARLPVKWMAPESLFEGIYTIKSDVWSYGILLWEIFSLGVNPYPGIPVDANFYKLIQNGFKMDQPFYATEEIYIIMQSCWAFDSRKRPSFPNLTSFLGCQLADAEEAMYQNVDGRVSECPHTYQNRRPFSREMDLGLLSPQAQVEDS
Kind of test: FLT3-D835Y biochemical kinase assay (AlphaScreen). The gist of the method: as §1

A further test addresses c-Kit (Homo sapiens, UniProt P10721). Nature of the test: c-Kit biochemical assay (per US 2007/0032519). The protocol:
The following Table 2 provides data indicating FLT3 ITD, FLT3 D835Y, and KIT biochemical activity, and BaF3 FLT3 ITD/F69L cellular inhibitory activity for exemplary compounds described in this disclosure. In the table below, activity is provided as follows: +++=0.0001<IC50<1 μM; ++=1 μM<IC50<10 μM, +=10 μM<IC50<200 μM. Assays for the biochemical activity of c-Kit and FMS were conducted according to those assays described in US Patent Application Publication number US 2007/0032519, the disclosure of which is hereby incorporated by reference in its entirety.

Sequence of c-Kit (P10721 26-976): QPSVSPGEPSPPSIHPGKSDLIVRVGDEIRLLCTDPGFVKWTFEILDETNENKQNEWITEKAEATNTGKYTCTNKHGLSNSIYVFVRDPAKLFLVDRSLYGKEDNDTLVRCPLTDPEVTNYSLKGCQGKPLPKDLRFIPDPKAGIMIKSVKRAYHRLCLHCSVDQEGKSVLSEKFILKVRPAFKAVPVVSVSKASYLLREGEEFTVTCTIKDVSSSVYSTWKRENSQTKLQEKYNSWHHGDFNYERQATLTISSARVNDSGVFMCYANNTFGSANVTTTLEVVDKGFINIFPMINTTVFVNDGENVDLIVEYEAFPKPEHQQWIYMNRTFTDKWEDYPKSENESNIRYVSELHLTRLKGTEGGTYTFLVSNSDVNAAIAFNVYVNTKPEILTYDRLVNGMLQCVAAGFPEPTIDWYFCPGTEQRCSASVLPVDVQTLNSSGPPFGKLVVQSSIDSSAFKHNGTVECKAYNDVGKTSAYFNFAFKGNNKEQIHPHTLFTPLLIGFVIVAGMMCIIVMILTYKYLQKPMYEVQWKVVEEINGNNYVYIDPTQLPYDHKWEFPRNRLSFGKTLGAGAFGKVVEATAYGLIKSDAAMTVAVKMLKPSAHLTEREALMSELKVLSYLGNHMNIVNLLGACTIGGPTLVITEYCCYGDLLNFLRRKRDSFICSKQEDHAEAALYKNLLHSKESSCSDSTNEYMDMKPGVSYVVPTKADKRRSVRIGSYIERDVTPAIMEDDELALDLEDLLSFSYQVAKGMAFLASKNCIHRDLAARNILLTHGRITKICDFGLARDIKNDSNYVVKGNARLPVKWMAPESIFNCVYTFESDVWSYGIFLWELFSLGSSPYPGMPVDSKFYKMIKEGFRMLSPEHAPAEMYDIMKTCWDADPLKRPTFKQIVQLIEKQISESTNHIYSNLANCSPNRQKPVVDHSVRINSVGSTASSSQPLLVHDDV

For the molecule `Cn1cnc2ccc(-c3c[nH]c4ncc(-c5cccc(N6CCOCC6)c5)cc34)cc21` [P-095, 4-[3-[3-(3-methylbenzimidazol-5-yl)-1H-pyrrolo[2,3-b]pyridin-5-yl]phenyl]morpholine], the IC50 at FLT3-ITD was 0.0001 to 1 µM; on FLT3-D835Y it was 0.0001 to 1 µM; against c-Kit it was 1 to 10 µM.

As for `CCS(=O)(=O)Nc1cccc(-c2cnc3[nH]cc(-c4ccc5ncn(C)c5c4)c3c2)c1` [P-094, N-[3-[3-(3-methylbenzimidazol-5-yl)-1H-pyrrolo[2,3-b]pyridin-5-yl]phenyl]ethanesulfonamide], the concentration for half-maximal inhibition (IC50) was in the range of 0.0001 to 1 µM at FLT3-ITD, 0.0001 to 1 µM at FLT3-D835Y and 1 to 10 µM on c-Kit.

Turning to `Cn1cnc2ccc(-c3c[nH]c4ncc(-c5cccc(C#N)c5)cc34)cc21` [P-089, 3-[3-(3-methylbenzimidazol-5-yl)-1H-pyrrolo[2,3-b]pyridin-5-yl]benzonitrile], the IC50 against FLT3-ITD is 0.0001 to 1 µM; against FLT3-D835Y, 0.0001 to 1 µM; against c-Kit, 10 to 200 µM.

For the molecule `O=C(C1CC1)N1CC=C(c2cnc3[nH]cc(-c4ccc5ncn(C6CCCC6)c5c4)c3n2)C1` [P-126, [3-[7-(3-cyclopentylbenzimidazol-5-yl)-5H-pyrrolo[2,3-b]pyrazin-2-yl]-2,5-dihydropyrrol-1-yl]-cyclopropyl-methanone], the concentration for half-maximal inhibition (IC50) lay in the range of 0.0001 to 1 µM against FLT3-ITD, 0.0001 to 1 µM at FLT3-D835Y and 10 to 200 µM against c-Kit.

With `Cn1cnc2ccc(-c3c[nH]c4ncc(OCC#N)cc34)cc21` [P-084, 2-[[3-(3-methylbenzimidazol-5-yl)-1H-pyrrolo[2,3-b]pyridin-5-yl]oxy]acetonitrile], the IC50 against FLT3-ITD was 0.0001 to 1 µM; against FLT3-D835Y it was 0.0001 to 1 µM; against c-Kit, 1 to 10 µM.

As for `c1cnc2[nH]cc(-c3ccc4[nH]cnc4c3)c2c1` [P-004, 3-(1H-benzimidazol-5-yl)-1H-pyrrolo[2,3-b]pyridine], the IC50 against FLT3-ITD was in the range of 1 to 10 µM; on FLT3-D835Y, 0.0001 to 1 µM; against c-Kit, 1 to 10 µM.

Take `Cn1cnc2ccc(-c3c[nH]c4ncc(Cl)cc34)cc21` [P-019, 5-chloro-3-(3-methylbenzimidazol-5-yl)-1H-pyrrolo[2,3-b]pyridine]: the half-inhibitory concentration (IC50) against FLT3-ITD was 0.0001 to 1 µM; on FLT3-D835Y it was 0.0001 to 1 µM; on c-Kit it was 10 to 200 µM.

For the molecule `CS(=O)(=O)Nc1cccc(-c2cnc3[nH]cc(-c4ccc5ncn(C6CCCC6)c5c4)c3c2)c1` [P-066, N-[3-[3-(3-cyclopentylbenzimidazol-5-yl)-1H-pyrrolo[2,3-b]pyridin-5-yl]phenyl]methanesulfonamide], the IC50 against FLT3-ITD, on FLT3-D835Y and against c-Kit was 0.0001 to 1 µM each time.

With `CC(C)(C)n1cnc2ccc(-c3c[nH]c4ncc(C5=CCN(C(=O)C6CC6)C5)cc34)cc21` [P-134, [3-[3-(3-tert-butylbenzimidazol-5-yl)-1H-pyrrolo[2,3-b]pyridin-5-yl]-2,5-dihydropyrrol-1-yl]-cyclopropyl-methanone], the IC50 against FLT3-ITD was in the range of 0.0001 to 1 µM; on FLT3-D835Y, 0.0001 to 1 µM; at c-Kit it was 10 to 200 µM.

On to `COc1cc(-c2cnc3[nH]cc(-c4ccc5ncn(C)c5c4)c3c2)cc(C)n1` [P-124, 5-(2-methoxy-6-methyl-4-pyridyl)-3-(3-methylbenzimidazol-5-yl)-1H-pyrrolo[2,3-b]pyridine], for which the IC50 lay in the range of 0.0001 to 1 µM at FLT3-ITD, 0.0001 to 1 µM against FLT3-D835Y and 10 to 200 µM against c-Kit.

Consider `CS(=O)(=O)Nc1cccc(-c2cnc3[nH]cc(-c4ccc5[nH]cnc5c4)c3n2)c1` [P-011, N-[3-[7-(1H-benzimidazol-5-yl)-5H-pyrrolo[2,3-b]pyrazin-2-yl]phenyl]methanesulfonamide], for which the IC50 fell in the range of 0.0001 to 1 µM on FLT3-ITD, 0.0001 to 1 µM on FLT3-D835Y and 1 to 10 µM against c-Kit.

`Cn1cnc2ccc(-c3c[nH]c4ncc(C5=CCN(C(=O)C6CC6)C5)cc34)cc21` [P-130, cyclopropyl-[3-[3-(3-methylbenzimidazol-5-yl)-1H-pyrrolo[2,3-b]pyridin-5-yl]-2,5-dihydropyrrol-1-yl]methanone]: the IC50 against FLT3-ITD lay within 0.0001 to 1 µM; on FLT3-D835Y it was 0.0001 to 1 µM; at c-Kit, 10 to 200 µM.

Consider `Nc1nc2cc(-c3c[nH]c4ncccc34)ccc2[nH]1` [P-010, 5-(1H-pyrrolo[2,3-b]pyridin-3-yl)-1H-benzimidazol-2-amine], for which the IC50 at FLT3-ITD is 1 to 10 µM; at FLT3-D835Y, 1 to 10 µM; against c-Kit it was 10 to 200 µM.

With `CS(=O)(=O)Nc1cccc(-c2cnc3[nH]cc(-c4ccc5c(c4)OCO5)c3n2)c1` [P-058, N-[3-[7-(1,3-benzodioxol-5-yl)-5H-pyrrolo[2,3-b]pyrazin-2-yl]phenyl]methanesulfonamide], the IC50 on FLT3-ITD was in the range of 0.0001 to 1 µM; at FLT3-D835Y it was 0.0001 to 1 µM; at c-Kit, 10 to 200 µM.

As to `COc1cnc2[nH]cc(-c3ccc4ncn(C)c4c3)c2c1` [P-016, 5-methoxy-3-(3-methylbenzimidazol-5-yl)-1H-pyrrolo[2,3-b]pyridine], the concentration for half-maximal inhibition (IC50) against FLT3-ITD is 0.0001 to 1 µM; at FLT3-D835Y it was 0.0001 to 1 µM; at c-Kit, 10 to 200 µM.

For `COc1cc(-c2cnc3[nH]cc(-c4ccc5ncn(C)c5c4)c3c2)ccc1Cl` [P-092, 5-(4-chloro-3-methoxy-phenyl)-3-(3-methylbenzimidazol-5-yl)-1H-pyrrolo[2,3-b]pyridine], the IC50 on FLT3-ITD, on FLT3-D835Y and on c-Kit was 0.0001 to 1 µM throughout.

Regarding `CC(C)(C)n1cnc2ccc(-c3c[nH]c4ncc(-c5ccnc(F)c5)nc34)cc21` [P-384, 7-(3-tert-butylbenzimidazol-5-yl)-2-(2-fluoro-4-pyridyl)-5H-pyrrolo[2,3-b]pyrazine], the IC50 at FLT3-ITD, against FLT3-D835Y and against c-Kit was 0.0001 to 1 µM in each case.

For the molecule `CNS(=O)(=O)c1cccc(-c2cnc3[nH]cc(-c4ccc5ncn(C)c5c4)c3n2)c1` [P-057, N-methyl-3-[7-(3-methylbenzimidazol-5-yl)-5H-pyrrolo[2,3-b]pyrazin-2-yl]benzenesulfonamide], the figures for the IC50 at FLT3-ITD, against FLT3-D835Y and against c-Kit were 0.0001 to 1 µM, 0.0001 to 1 µM and 1 to 10 µM, respectively.

For the molecule `O=C(C1CC1)N1CC=C(c2cnc3[nH]cc(-c4ccc5[nH]cnc5c4)c3c2)CC1` [P-017, [4-[3-(1H-benzimidazol-5-yl)-1H-pyrrolo[2,3-b]pyridin-5-yl]-3,6-dihydro-2H-pyridin-1-yl]-cyclopropyl-methanone], the IC50 against FLT3-ITD fell in the range of 0.0001 to 1 µM; against FLT3-D835Y, 0.0001 to 1 µM; at c-Kit, 1 to 10 µM.
